The values below are quoted from earlier work in US11661525B2, “Inkjet ink and inkjet recording apparatus” (KYOCERA Document Solutions Inc., priority 2020, dated 2023).

For orientation: LogP means the decadic logarithm of the partition coefficient of the neutral form, usually between octanol and water.

The mark [1] stands for this setting: literature values of the octanol/water partition coefficient of representative water-soluble organic solvents.

Where two headings read alike, the source gives them in different places.

For the molecule `OCCOCCOCCO` [Triethylene glycol], the LogP under setting [1] is −1.98.
As to `CC(CCO)CCO` [3-Methyl-1,5-pentanediol], the LogP is on record as 0.07 under setting [1]; 0.01 (octanol/water partition coefficient of the water-soluble organic solvent used in the inks (Tables 6 and 8)).
With `CCOCCOCCO` [Diethylene glycol monoethyl ether], under setting [1], the LogP is reported as −0.15.
As for `CCCCCCC(O)CO` (centres unmarked) [1,2-Octanediol], under setting [1], the LogP is 0.66.
